# Data from patent publication US4879300A, “Novel piperidine derivatives” (Dr. Lo. Zambeletti S.p.A., priority 1986, dated 1989).
# Read-outs that look alike come from different tables or passages of the source.
# Experiments:
# mice = experiment: Mouse tail-flick test (analgesic activity); type: in vivo, mouse (male Charles River)
# μ receptor = μ receptor (Cavia porcellus, UniProt A0ACM8Q262); experiment: Receptor binding to μ sites (3H-DAGO, guinea pig brain homogenate); settings: 25° C., 40 min, read-out: Receptor binding μ (kj)
# μ receptor, sequence (A0ACM8Q262 1-400): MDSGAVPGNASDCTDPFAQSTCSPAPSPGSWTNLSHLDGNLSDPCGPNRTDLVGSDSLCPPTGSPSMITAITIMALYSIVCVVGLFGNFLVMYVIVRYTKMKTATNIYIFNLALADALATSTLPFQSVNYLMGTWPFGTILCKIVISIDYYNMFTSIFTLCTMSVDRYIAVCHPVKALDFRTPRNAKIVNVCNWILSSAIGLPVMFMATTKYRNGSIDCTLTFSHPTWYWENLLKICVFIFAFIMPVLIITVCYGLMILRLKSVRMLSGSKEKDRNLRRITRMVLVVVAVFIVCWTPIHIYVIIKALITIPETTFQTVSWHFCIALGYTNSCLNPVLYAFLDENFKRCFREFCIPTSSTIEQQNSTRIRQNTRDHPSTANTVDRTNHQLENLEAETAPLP
# Protocol: (§1) Radio receptor binding to μ and K sites is performed on fresh guinea pig brain homogenate prepared according to Kosterlitz. (1981).
# (§2) Whole brain without cerebellum is homogenized in 50 mM, Tris-buffer (pH 7.4 at 0° C.) and centrifuged at 49,000 ×g×10 min.
# (§3) The pellet is then resuspended in the same buffer, incubated at 37° C. for 45 min. and centrifuged again.
# (§4) 1.9 ml of the final homogenate (1:100 in Tris-pH 7.4, 0° C.) is used for the binding assay.
# Binding to μ sites (Magnan J., 1982)
# ^3 H [D-Ala^2, MePhe^4, Gly-ol^5 ] Enkephalin (^3 H--DAGO), an enkephalin analogue that binds selectively to μ receptor, is added to the biological substrate and incubated at 25° C. for 40 min., filtered through Whatman GF-C and washed with ice-cold Tris-buffer.
# The filters are then dryed, solubilized in Filtercount and the radioactivity monitored. Non specific binding is determined in the presence of 10^-6 M Naloxone.
# (§5) For the calculation of the kinetic parameters of the binding of labelled and unlabelled ligands, the equilibrium dissociation constant (KD), the inhibition constant (Ki) and the maximum number of binding sites (B max) are determined from saturation curves and competition experiments (Hill 1910; Scatchard 1949; Cheng and Prusoff 1973; Gillan et al. 1980).
# A concentration of radioligand near KD is used in the binding assays evaluating our compounds.
# [1] = target: T1, K receptor (Kappa opioid receptor) (Cavia porcellus, UniProt P41144); experiment: Receptor binding to K sites (tritiated Ethylketocyclazocine, guinea pig brain homogenate); settings: tritiated Ethylketocyclazocine with 100 nM DADLE and 100 nM DAGO, 25° C., 40 min, read-out: Receptor binding k (kj)
# T1 construct: fresh guinea pig brain homogenate; from tissue; host or cells: guinea pig whole brain without cerebellum, homogenate
# T1 sequence (P41144 whole entry): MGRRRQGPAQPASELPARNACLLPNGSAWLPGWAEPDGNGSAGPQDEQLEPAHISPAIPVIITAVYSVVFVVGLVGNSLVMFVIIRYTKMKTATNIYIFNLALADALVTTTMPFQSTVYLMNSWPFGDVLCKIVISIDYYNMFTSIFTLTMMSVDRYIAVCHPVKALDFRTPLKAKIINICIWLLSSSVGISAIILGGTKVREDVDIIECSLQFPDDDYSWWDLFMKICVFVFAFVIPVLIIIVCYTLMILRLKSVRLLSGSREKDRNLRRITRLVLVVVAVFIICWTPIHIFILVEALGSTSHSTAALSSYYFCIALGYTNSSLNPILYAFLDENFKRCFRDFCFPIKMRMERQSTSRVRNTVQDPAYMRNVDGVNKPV
# Protocol: as §1, §2, §3, §4
# Binding to K sites (Magnan J., 1982)
# The binding of tritiated Ethylketocyclazocine to brain homogenate is measured the in presence of 100 nanomolar D-Ala-D-LeuEnkephalin (DADLE) and 100 nanomolar DAGO, added to saturate the δ and μ opioid receptors respectively.
# Final homogenate with solutions of the cold ligand and of the labelled ligand is incubated for 40 min. at 25° C., filtered through Whatman GF/C glass filter discs and washed.
# The radioactivity bound to the filters is counted by liquid scintillation spectrophotometry.
# MR 2266.500 nM is utilized to determine the saturable binding.
# as §5, with “1980). […]” for “1980).”
# [2] = sc, 0.5 h, s.c., reaction time recorded 30 min after dosing, % mice doubling initial time, read-out: Mouse tail-flick ED50 (s.c.)
structure (smiles),measurement,setting,value
"CC(C1CCCCN1C(=O)Cc1ccc(Cl)c(Cl)c1)N(C)C.Cl (single isomer, unassigned; diastereoisomer b) [Example 4, 1-(3,4-dichlorophenylacetyl)-2-(1-dimethylaminoethyl) piperidine hydrochloride--Diastereoisomer B]",ED50,"mice; po, read-out: Mouse tail-flick ED50 (p.o.)",0.75 mg/kg
same,ED50,mice; [2],0.41 mg/kg
same,Ki,μ receptor,913 nM
same,Ki,[1],2.3 nM
"CC(C1CCCCN1C(=O)Cc1ccc(Cl)c(Cl)c1)N1CCCC1 (single isomer, unassigned; diastereoisomer b) [Example 2, 1-(3,4-dichlorophenylacetyl)-2-[1-(1-pyrrolidinyl)ethylpiperidine]--Diastereoisomer B]",ED50,mice; [2],4.12 mg/kg
